Entries after “also recorded” stand apart in the source; their conditions may differ.
Legend:
rEAAT3 = target: T1, rEAAT3 (Rattus norvegicus, UniProt P51907); test: Electrophysiology: SLC1 specificity, anion current in transfected HEK293 cells; type: cell-based; details: 0 mV, 10 mM glutamate and 130 mM NaSCN internal, No current = no outward current up to highest concentration tested (§ 20-50, || 100-400, # 1500-2500 µM); for Ki: read-out: Binding affinity Ki
T1 construct: expressed in transfected cells; host or cells: HEK293 (ATCC CRL-11268), transient transfection
T1 sequence (P51907 1-523): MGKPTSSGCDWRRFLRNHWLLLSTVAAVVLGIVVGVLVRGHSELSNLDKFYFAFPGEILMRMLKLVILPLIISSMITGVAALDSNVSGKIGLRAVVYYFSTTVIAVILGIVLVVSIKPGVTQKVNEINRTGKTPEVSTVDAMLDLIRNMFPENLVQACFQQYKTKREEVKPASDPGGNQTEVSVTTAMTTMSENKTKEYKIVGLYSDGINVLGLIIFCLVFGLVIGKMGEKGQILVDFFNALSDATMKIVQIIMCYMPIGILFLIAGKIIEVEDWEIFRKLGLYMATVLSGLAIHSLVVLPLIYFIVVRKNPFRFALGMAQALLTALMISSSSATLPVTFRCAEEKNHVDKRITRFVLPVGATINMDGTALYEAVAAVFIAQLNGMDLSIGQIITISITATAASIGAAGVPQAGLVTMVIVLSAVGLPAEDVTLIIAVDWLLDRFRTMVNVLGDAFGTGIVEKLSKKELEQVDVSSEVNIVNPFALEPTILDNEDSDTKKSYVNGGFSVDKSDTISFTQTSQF
Procedure: (§1) We also tested the specificity of Lc-BPE for ASCT2 over other SLC1 family members (ASCT1, EAAT1-3, and EAAT5).
(§2) Fig. S3. SLC-1 specificity of Lc-BPE. (A) Electrophysiological current responses to the application of 100 µM glutamate (red trace) or varying concentrations of Lc-BPE (black, blue and red traces) to rEAAT1-expressing cells HEK293 cells. (B-C) Dose response curves obtained from currents recorded a fter application of Lc-BPE extracellularly to cells transiently expressing hASCT2, rASCT2, hASCT1 (panel B) and rEAAT1, rEAAT2, rEAAT3 and hEAAT5 (panel C) respectively. For hASCT2, rASCT2 and hASCT1, intracellular pipette solution contained 10 mM alanine and 130 mM NaSCN. For rEAAT1, rEAAT2, rEAAT3 and hEAAT5, intracellular solution contained 10 mM glutamate and 130 mM NaSCN. Extracellular solution was the same for all the experiments (140 mM NaCl). The voltage was 0 mV. […]
(§3) Cell culture and transfection
(§4) Human embryonic kidney 293 (HEK293, ATCC CRL -11268) cells were cultured in DMEM media supplemented with 10% (v/v) fetal bovine serum (FBS), 2 mM glutamine, 1% penicillin streptomycin solution, 1 mM sodium pyruvate and non -essential amino acids. Cells were maintained at 370C in a fully humidified atmosphere containing 5% CO2. rASCT2, hASCT2, hASCT1, EAAT1, EAAT2, EAAT3, EAAT5 and YFP complementary DNAs were each used to transiently transfect HEK293 using POLYPLUS Jet-prime transfection reagent. Cells were analyzed using electrophysiological techniques 24-40 hours after transfection.
(§5) Electrophysiological techniques
(§6) Electrophysiological experiments were performed as described previously 1,2. Stock solutions of inhibitor was prepared in dimethyl sulfoxide (DMSO) up to 100 mM.
(§7) Dilutions to working concentrations were made using external buffer. The highest […]
(§8) cells. For rASCT2, hASCT2 and hASCT1, external buffer contained 140 mM NaCl, 2 mM MgCl2, 2 mM CaCl2, and 10 mM HEPES, pH 7.40 while internal pipette solution comprised of 130 mM NaSCN, 2 mM MgCl2, 10 mM EGTA, 10 mM HEPES and 10mM alanine, pH 7.40. For specificity experiments with EAAT1, EAAT2, EAAC1 and EAAT5, internal solution contained 10 mM glutamate instead of alanine. Compounds were applied to HEK293 cells expressing DNA of interest suspended from a current recording electrode in whole cell configuration44 through a rapid solution exchange device described previously45. Cells are immersed in external buffer bath used to dissolve the inhibitors. The open pipette resistance was between 3 and 6 MΩ. Series resistance was not compensated in these experiments due to relatively small currents. Current s traces were recorded using an Adams and List EPC7 amplifier and digitized using a Molecular Devices Digidata A/D converter.
(§9) Data analysis was performed as described previously 46. Linear and nonlinear curve fitting of the experimental data were analyzed using MicroCal Origin software. Linear plots were fitted using the general equation (y = a + bx) obtaining adjusted R 2 and Pearson’s r values. Nonlinear dose–response relationships were fitted with a Michaelis – Menten-like equation to obtain apparent Ki values in the absence of substrate. For competition studies, equation I = I1 + I2 [Inh]/(Ki + [Inh]) was used for fitting, where I1 is the alanine induced current without the inhibitor, and I2 is the maximum current in the presence of saturating inhibitor concentration, [Inh]max 1,2. At least five experiments were performed for each compound. Unless stated otherwise, the error bars in all our graphs represent mean ± SD .
(§10) ASCT2 expression and purification
(§11) Human ASCT2 (hASCT2) was produced in Pichia pastoris X-33 strain (Invitrogen) in fermentor26 and purified using DDM and CHS (Anatrace) and 1 mM L-glutamine (Merck) to maintain protein stability 27. Membranes representing ~1.5 g cells were solubilized in buffer A (25 mM Tris-HCl, pH 7.4, 300 mM NaCl, 10% (vol/vol) glycerol, 1 mM L - glutamine, 1% DDM and 0.1% CHS) for 1 h at 4 °C; ultracentrifuged (30 min, 442,907 × […]

hASCT1 = target: T2, hASCT1 (Homo sapiens, UniProt P43007); test: as above; type: cell-based; details: for Ki: read-out: Binding affinity Ki
T2 construct: expressed in transfected cells; host or cells: HEK293 (ATCC CRL-11268), transient transfection
T2 sequence (P43007 1-532): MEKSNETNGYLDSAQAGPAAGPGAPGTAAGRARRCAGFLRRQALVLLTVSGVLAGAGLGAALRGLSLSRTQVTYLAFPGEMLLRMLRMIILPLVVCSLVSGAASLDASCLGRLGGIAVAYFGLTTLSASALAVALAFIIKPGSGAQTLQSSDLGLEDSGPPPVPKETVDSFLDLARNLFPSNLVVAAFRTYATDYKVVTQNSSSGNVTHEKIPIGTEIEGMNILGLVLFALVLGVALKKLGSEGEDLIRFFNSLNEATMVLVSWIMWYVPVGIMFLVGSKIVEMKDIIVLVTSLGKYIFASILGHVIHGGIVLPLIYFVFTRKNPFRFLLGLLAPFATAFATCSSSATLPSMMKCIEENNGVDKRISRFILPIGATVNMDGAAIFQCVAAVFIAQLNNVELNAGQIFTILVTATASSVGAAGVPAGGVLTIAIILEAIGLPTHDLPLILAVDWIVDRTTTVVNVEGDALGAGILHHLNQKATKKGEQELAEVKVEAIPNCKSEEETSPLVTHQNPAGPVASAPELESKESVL
Procedure: as §1, §2, §3, §4, §5, §6, §7, §8, §9, §10, §11

[1] = HEK293 cells, 0 mV, 10 mM alanine and 130 mM NaSCN internal, No current = no outward current up to highest concentration tested (§ 20-50, || 100-400, # 1500-2500 µM)

SMILES | Binding affinity Ki (rEAAT3) | Ki (rEAAT3) [µM] | Ki (hASCT1; [1]) [µM] | Binding affinity Ki (hASCT1; [1]) | apparent affinity of hASCT1 lower than that of rASCT2 (hASCT1; hASCT1 versus rASCT2) [fold]
O=C(O[C@@H]1CN[C@H](C(=O)O)C1)c1ccccc1-c1ccccc1 [ERA-3] | No current | – | – | No current | –
O=C(O[C@@H]1CN[C@H](C(=O)O)C1)c1ccc(-c2ccc(F)cc2)cc1 [ERA-4] | – | 0.69 ± 0.07 | 0.9 ± 0.08 | – | –
Cc1ccccc1-c1ccc(C(=O)O[C@@H]2CN[C@H](C(=O)O)C2)cc1 [ERA-6] | – | 1.99 ± 0.36 | 1.33 ± 0.3 | – | –
O=C(O[C@@H]1CN[C@H](C(=O)O)C1)c1ccc(C(O)c2ccccc2)cc1 (stereo partly shown) [ERA-9] | No current; also recorded: No inhibitory activity was detected | – | 43 ± 13.4 | – | –
O=C(O[C@@H]1CN[C@H](C(=O)O)C1)c1ccc(OCc2ccccc2)cc1 [ERA-31] | No current | – | > 100 | – | –
O=C(O[C@H]1CN[C@H](C(=O)O)C1)c1ccc(C(=O)c2ccccc2)cc1 [ERA-35] | No current | – | – | – | –
O=C(O[C@@H]1CN[C@H](C(=O)O)C1)c1ccc(-c2ccccc2)cc1 [Lc-BPE, L-cis hydroxyproline biphenyl ester] | – | – | – | – | ~3.8

Second part, led by results:

Binding affinity Ki (rEAAT3) | Ki (rEAAT3) [µM] | Ki (hASCT1; [1]) [µM] | SMILES | Binding affinity Ki (hASCT1; [1]) | apparent affinity of hASCT1 lower than that of rASCT2 (hASCT1; hASCT1 versus rASCT2) [fold]
– | 1.25 ± 0.24 | 0.44 ± 0.14 | O=C(O[C@@H]1CN[C@H](C(=O)O)C1)c1ccc(-c2ccc(C(F)(F)F)cc2)cc1 [ERA-5] | – | –
No current | – | 8.51 ± 3.87 | O=C(Nc1ccc(C(=O)O[C@@H]2CN[C@H](C(=O)O)C2)cc1)c1ccc(C(F)(F)F)cc1 [ERA-11] | – | –
– | 10.3 ± 2.15 | 5.71 ± 0.91 | O=C(O[C@@H]1CN[C@H](C(=O)O)C1)c1ccc(Oc2ccccc2)cc1 [ERA-16] | – | –
– | 12.3 ± 1.86 | 11.6 ± 1.75 | N[C@@H](COC(=O)c1ccc(NC(=O)c2ccccc2)cc1)C(=O)O [ERA-21] | – | –
– | 656 ± 115 | 170 ± 26.7 | N[C@@H](COC(=O)c1ccccc1)C(=O)O [ERA-25] | – | –
No current | – | 549 ± 306 | N[C@@H](COC(=O)c1cccnc1)C(=O)O [ERA-28] | – | –
No current | – | – | O=C(O[C@@H]1CN[C@H](C(=O)O)C1)C(c1ccccc1)c1ccccc1 [ERA-29] | – | –

— PMC8449414, “Rational design of ASCT2 inhibitors using an integrated experimental-computational approach” (Proceedings of the National Academy of Sciences of the …, 2021)
